Where a name gives a salt, the structure may show the parent alone.
target: serotonin 2A (5-HT2A) receptor (Homo sapiens, UniProt P28223); assay: Measurement of inhibitory activity against serotonin 2A receptor (in vitro); assay type: biochemical; conditions: inhibitory activity against serotonin 2A (5-HT2A) receptor
From the text: Experimental Example: Measurement of Inhibitory Activity Against Serotonin 2A Receptor

Sequence of serotonin 2A (5-HT2A) receptor (P28223 whole entry, species assumed): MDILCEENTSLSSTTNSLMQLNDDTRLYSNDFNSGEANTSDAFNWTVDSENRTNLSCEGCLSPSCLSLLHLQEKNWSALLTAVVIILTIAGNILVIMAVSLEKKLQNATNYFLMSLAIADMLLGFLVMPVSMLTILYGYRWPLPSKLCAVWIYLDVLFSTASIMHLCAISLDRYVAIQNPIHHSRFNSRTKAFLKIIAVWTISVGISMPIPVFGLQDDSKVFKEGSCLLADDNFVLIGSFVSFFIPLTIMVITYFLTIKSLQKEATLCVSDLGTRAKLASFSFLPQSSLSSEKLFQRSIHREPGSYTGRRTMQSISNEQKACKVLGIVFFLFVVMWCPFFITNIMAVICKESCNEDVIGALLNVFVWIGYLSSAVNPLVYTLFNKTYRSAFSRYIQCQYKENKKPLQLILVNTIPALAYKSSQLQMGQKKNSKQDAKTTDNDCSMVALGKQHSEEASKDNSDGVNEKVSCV

With OC(CN1CCC(=C2c3ccc(Cl)cc3CCc3cccnc32)CC1)c1ccc(Br)cc1 (stereo not shown) [Example 27, 1-(4-bromophenyl)-2-(4-(8-chloro-5,6-dihydro-11H-benzo[5,6]cyclohepta [1,2-b]pyridin-11-ylidene)piperidin-1-yl)ethan-1-ol] as the molecule, how does the IC50 read?
Its IC50 is 1.19 nM.

For O=c1[nH]c2ccccc2c(=O)n1CCN1CCC(=C2c3ccc(Cl)cc3CCc3cccnc32)CC1 [Example 12, 3-(2-(4-(8-chloro-5,6-dihydro-11H-benzo[5,6]cyclohepta[1,2-b]pyridin-11-ylidene)piperidin-1-yl)ethyl)quinazoline-2,4(1H,3H)-dione], which IC50 is on record?
The IC50 was 47 nM.

N[C@@H](Cc1ccc(OCCCCN2CCC(=C3c4ccc(Cl)cc4CCc4cccnc43)CC2)cc1)C(=O)O [Example 14, (S)-2-amino-3-(4-(4-(4-(8-chloro-5,6-dihydro-11H-benzo[5,6]cyclohepta[1,2-b]pyridin-11-ylidene)piperidin-1-yl)butoxy)phenyl)propionic acid trihydrochloride] was tested. Which IC50 did it give?
Its IC50 is 188 nM.

How did the IC50 turn out when CN1CCC(=C2c3ccc(Cl)cc3CCc3cccnc32)CC1 [Example 13, 8-chloro-11-(1-methylpiperidin-4-ylidene)-6,11-dihydro-5H-benzo[5,6]cyclohepta[1,2-b]pyridine] was run?
The IC50 was 119 nM.

For O=C1C2C(C(=O)N1CCCCN1CCC(=C3c4ccc(Cl)cc4CCc4cccnc43)CC1)[C@H]1CC[C@@H]2C1 (stereo partly drawn) [Example 30, (4R,7S)-2-(4-(4-(8-chloro-5,6-dihydro-11H-benzo[5,6]cyclohepta[1,2-b]pyridin-11-ylidene)piperidin-1-yl)butyl)hexahydro-1H-4,7-methanoisoindole-1,3(2H)-dione], which IC50 is on record?
The IC50 was 0.15 nM.

How did the IC50 turn out when N[C@@H](Cc1ccc(OCCCCN2CCC(=C3c4ccc(Cl)cc4CCc4cccnc43)CC2)c(Cl)c1)C(=O)O [Example 20, (S)-2-amino-3-(3-chloro-4-(4-(4-(8-chloro-5,6-dihydro-11H-benzo[5,6]cyclohepta[1,2-b]pyridin-11-ylidene)piperidin-1-yl)butoxy)phenyl)propionic acid trihydrochloride] was run?
The IC50 was 2.08 nM.

For N[C@@H](Cc1ccc(OCCCN2CCC(=C3c4ccc(Cl)cc4CCc4cccnc43)CC2)c(Cl)c1)C(=O)O [Example 21, (S)-2-amino-3-(3-chloro-4-(3-(4-(8-chloro-5,6-dihydro-11H-benzo[5,6]cyclohepta[1,2-b]pyridin-11-ylidene)piperidin-1-yl)propoxy)phenyl)propionic acid trihydrochloride], which IC50 is on record?
Its IC50 is 2.1 nM.

O=C1CCc2ccc(OCCCCN3CCC(=C4c5ccc(Cl)cc5CCc5cccnc54)CC3)cc2N1 [Example 18, 7-(4-(4-(8-chloro-5,6-dihydro-11H-benzo[5,6]cyclohepta[1,2-b]pyridin-11-ylidene)piperidin-1-yl)butoxy)-3,4-dihydroquinolin-2(1H)-one] was tested. Which IC50 did it give?
Its IC50 is 1.3 nM.

How did the IC50 turn out when COc1cccc(CCc2ccccc2OCC(O)CN2CCC(=C3c4ccc(Cl)cc4CCc4cccnc43)CC2)c1 (stereo not shown) [Example 60, 1-(4-(8-chloro-5,6-dihydro-11H-benzo[5,6]cyclohepta[1,2-b]pyridin-11-ylidene)piperidin-1-yl)-3-(2-(3-methoxyphenethyl)phenoxy)propan-2-ol] was run?
The IC50 was 30.8 nM.

How did the IC50 turn out when O=C(CN1CCC(=C2c3ccc(Cl)cc3CCc3cccnc32)CC1)c1ccc(Br)cc1 [Example 24, 1-(4-bromophenyl)-2-(4-(8-chloro-5,6-dihydro-11H-benzo[5,6]cyclohepta[1,2-b]pyridin-11-ylidene)piperidin-1-yl)ethan-1-one] was run?
Its IC50 is 8.1 nM.

For Cc1nc2sccn2c1C(O)CN1CCC(=C2c3ccc(Cl)cc3CCc3cccnc32)CC1 (stereo not shown) [Example 15, 2-(4-(8-chloro-5,6-dihydro-11H-benzo[5,6]cyclohepta[1,2-b]pyridin-11-ylidene)piperidin-1-yl)-1-(6-methylimidazo[2,1-b]thiazol-5-yl)ethan-1-ol], which IC50 is on record?
The IC50 was 30 nM.

For O=C1C2CCCCC2C(=O)N1CCCCN1CCC(=C2c3ccc(Cl)cc3CCc3cccnc32)CC1 (stereo not shown) [Example 19, 2-(4-(4-(8-chloro-5,6-dihydro-11H-benzo[5,6]cyclohepta[1,2-b]pyridin-11-ylidene)piperidin-1-yl)butyl)hexahydro-1H-isoindole-1,3(2H)-dione], which IC50 is on record?
The IC50 was 0.19 nM.

Which IC50 does the source give for N[C@@H](Cc1ccc(OCCCN2CCC(=C3c4ccc(Cl)cc4CCc4cccnc43)CC2)cc1)C(=O)O [Example 22, (S)-2-amino-3-(4-(3-(4-(8-chloro-5,6-dihydro-11H-benzo[5,6]cyclohepta[1,2-b]pyridin-11-ylidene)piperidin-1-yl)propoxy)phenyl)propionic acid trihydrochloride] here?
The IC50 was 1.3 nM.

— patent US12662461B2, “Tricyclic compound and pharmaceutical use thereof” (JD BIOSCIENCE INC., priority 2019, dated 2026)
